Where “and” joins values, the source holds several entries; their conditions need not be identical. Identical values can stand only once.
Columns and labels:
Assay in all cases: Kinase inhibition screen, cell-free 33P ATP assay at 10 μM
Format in all cases: biochemical
[1] = target: 140 purified human kinases (Homo sapiens, UniProt Q14680); conditions: MELK
Procedure, shortened: (§1)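 Each complex tested in duplicate at 10 μM; cell-free radiometric assay using ^33P ATP on purified enzymes. Hits mapped by HGNC symbol onto the kinome tree.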

[2] = target: 140 purified human kinases (Homo sapiens, UniProt P16234); conditions: PDGFRA
Chain of 140 purified human kinases (Homo sapiens, UniProt P16234) (P16234 24-1089): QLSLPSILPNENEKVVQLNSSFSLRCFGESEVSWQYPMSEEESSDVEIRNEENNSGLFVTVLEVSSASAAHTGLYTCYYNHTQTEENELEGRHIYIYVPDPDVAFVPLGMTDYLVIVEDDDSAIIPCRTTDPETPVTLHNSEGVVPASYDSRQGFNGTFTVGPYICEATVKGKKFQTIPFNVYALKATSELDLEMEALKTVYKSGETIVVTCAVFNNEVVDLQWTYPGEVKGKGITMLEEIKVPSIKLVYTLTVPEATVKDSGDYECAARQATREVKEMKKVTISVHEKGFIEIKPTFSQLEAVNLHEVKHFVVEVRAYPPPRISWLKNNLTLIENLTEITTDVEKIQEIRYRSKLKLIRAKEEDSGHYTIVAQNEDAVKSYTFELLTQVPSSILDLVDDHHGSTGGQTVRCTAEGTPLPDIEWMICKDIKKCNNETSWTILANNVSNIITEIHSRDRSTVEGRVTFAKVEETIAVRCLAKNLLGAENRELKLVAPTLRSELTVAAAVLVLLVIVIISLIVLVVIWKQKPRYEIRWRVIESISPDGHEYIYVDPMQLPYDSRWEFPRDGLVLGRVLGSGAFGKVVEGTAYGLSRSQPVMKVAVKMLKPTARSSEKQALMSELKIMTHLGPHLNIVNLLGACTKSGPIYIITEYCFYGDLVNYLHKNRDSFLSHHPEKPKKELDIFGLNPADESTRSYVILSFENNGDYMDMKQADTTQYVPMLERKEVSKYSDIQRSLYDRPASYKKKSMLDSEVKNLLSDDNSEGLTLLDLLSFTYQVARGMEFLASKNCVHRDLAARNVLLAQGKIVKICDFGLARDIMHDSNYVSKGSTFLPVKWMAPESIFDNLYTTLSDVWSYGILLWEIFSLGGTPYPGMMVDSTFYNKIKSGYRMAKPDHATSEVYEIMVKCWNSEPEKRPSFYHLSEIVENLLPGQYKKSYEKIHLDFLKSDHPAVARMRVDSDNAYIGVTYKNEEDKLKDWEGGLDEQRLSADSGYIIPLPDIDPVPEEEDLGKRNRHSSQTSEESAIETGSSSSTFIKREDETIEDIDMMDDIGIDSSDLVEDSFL
Procedure, shortened: as §1

[3] = target: 140 purified human kinases (Homo sapiens, UniProt Q15418)
Chain of 140 purified human kinases (Homo sapiens, UniProt Q15418) (Q15418 whole entry): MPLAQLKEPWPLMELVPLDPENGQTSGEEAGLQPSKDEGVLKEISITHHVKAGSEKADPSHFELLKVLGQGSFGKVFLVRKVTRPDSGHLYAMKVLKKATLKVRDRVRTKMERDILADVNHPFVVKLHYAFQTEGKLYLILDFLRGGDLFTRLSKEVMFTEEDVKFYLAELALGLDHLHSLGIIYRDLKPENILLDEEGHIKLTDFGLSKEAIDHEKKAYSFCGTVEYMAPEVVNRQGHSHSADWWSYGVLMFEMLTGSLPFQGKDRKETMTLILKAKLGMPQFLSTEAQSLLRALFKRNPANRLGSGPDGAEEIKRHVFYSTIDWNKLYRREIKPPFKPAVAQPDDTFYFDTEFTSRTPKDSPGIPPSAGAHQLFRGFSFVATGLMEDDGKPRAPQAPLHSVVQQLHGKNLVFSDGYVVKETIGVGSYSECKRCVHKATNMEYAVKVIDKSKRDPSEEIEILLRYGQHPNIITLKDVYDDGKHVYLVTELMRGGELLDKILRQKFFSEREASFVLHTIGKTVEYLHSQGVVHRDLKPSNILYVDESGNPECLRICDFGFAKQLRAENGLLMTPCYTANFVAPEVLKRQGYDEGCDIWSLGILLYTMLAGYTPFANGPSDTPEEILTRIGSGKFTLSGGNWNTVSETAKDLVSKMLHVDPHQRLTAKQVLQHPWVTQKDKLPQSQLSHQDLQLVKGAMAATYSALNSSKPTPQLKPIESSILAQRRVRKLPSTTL
Procedure, shortened: as §1

[4] = target: 140 purified human kinases (Homo sapiens, UniProt P53350); conditions: for % Activity Run 1 / % Activity Run 2: 10 µM
Chain of 140 purified human kinases (Homo sapiens, UniProt P53350) (P53350 whole entry): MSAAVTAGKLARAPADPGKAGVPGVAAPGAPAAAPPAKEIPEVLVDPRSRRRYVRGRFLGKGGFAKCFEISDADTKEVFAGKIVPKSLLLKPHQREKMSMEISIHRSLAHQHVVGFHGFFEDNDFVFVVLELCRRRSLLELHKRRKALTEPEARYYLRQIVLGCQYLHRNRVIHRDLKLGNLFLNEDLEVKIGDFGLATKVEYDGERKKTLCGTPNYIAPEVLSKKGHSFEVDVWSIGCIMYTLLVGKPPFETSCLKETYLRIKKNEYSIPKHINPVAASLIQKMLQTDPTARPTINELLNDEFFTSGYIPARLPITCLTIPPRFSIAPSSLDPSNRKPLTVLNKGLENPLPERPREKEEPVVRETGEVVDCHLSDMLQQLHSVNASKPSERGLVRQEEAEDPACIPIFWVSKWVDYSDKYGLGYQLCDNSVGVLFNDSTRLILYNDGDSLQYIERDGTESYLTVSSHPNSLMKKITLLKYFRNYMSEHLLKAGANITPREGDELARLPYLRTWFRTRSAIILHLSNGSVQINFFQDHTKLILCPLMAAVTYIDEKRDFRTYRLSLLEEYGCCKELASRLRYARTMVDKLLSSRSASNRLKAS
Procedure, shortened: as §1

[5] = target: 140 purified human kinases (Homo sapiens, UniProt Q02750)
Chain of 140 purified human kinases (Homo sapiens, UniProt Q02750) (Q02750 whole entry): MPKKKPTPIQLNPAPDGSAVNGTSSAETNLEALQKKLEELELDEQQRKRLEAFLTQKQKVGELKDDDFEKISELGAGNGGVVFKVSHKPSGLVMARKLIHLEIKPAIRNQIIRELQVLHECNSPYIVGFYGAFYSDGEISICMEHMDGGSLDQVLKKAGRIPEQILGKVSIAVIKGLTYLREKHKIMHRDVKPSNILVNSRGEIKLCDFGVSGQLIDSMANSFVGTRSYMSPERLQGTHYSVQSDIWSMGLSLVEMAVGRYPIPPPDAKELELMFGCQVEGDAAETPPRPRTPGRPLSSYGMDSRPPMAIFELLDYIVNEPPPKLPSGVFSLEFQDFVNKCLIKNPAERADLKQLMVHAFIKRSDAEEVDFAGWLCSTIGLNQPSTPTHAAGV
Procedure, shortened: as §1

[6] = target: T1, 140 purified human kinases (Homo sapiens, UniProt Q14164); conditions: IKKe
T1 sequence (Q14164 1-716): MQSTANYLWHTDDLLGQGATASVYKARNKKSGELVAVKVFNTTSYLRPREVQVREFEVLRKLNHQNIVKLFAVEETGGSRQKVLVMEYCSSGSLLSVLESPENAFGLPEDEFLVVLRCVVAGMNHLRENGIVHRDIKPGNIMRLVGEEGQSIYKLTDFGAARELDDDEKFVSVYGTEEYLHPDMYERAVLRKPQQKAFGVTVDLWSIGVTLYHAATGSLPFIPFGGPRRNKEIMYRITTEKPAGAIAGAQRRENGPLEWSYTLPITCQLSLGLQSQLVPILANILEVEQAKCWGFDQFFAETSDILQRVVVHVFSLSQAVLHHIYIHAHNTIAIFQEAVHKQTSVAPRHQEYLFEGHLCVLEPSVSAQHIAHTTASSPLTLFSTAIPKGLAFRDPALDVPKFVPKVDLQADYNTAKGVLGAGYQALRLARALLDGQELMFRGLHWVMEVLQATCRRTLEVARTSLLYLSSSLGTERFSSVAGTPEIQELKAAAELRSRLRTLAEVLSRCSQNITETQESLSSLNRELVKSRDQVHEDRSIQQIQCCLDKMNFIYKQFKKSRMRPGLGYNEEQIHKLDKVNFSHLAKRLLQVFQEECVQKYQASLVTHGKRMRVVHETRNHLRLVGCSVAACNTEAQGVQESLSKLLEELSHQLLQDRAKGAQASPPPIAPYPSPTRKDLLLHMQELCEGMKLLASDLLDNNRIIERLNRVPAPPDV
Procedure, shortened: as §1

[7] = target: 140 purified human kinases (Homo sapiens, UniProt P08069); conditions: IGF-1R
Chain of 140 purified human kinases (Homo sapiens, UniProt P08069) (P08069 31-1367): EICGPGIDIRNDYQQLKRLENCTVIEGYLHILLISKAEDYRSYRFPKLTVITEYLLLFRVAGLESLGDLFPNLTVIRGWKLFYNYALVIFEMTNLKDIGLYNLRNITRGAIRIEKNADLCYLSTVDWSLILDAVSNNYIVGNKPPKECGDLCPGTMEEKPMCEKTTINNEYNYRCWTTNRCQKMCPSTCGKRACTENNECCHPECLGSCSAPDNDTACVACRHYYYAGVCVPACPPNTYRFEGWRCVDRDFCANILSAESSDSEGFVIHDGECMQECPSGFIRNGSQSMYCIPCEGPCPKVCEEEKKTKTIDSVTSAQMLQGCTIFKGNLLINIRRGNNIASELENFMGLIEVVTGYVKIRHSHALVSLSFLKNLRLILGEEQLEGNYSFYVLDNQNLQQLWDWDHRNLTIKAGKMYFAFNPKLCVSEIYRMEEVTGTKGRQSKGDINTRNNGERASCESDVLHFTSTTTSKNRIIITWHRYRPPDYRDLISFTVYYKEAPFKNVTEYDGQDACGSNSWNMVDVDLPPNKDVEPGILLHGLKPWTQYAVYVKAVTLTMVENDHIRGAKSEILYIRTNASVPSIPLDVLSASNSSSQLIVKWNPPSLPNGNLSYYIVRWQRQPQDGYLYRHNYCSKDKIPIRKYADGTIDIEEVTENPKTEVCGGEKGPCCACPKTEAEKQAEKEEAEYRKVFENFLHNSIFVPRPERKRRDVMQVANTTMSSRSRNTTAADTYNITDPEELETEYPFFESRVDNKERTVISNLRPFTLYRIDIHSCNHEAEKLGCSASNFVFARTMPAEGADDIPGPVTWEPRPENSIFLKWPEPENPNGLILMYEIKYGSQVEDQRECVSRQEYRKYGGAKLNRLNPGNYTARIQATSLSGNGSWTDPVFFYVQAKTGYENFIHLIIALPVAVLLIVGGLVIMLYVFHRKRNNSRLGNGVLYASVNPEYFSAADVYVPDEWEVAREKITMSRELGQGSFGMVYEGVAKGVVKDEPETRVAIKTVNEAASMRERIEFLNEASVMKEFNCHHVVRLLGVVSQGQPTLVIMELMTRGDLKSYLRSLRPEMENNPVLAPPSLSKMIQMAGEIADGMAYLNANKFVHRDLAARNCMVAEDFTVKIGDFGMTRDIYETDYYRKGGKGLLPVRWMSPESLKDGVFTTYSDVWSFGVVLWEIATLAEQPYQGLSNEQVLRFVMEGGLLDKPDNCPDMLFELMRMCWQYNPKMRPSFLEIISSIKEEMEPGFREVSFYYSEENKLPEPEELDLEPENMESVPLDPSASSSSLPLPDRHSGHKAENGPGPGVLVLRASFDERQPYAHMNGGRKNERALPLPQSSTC
Procedure, shortened: as §1

[8] = target: T2, 140 purified human kinases (Homo sapiens, UniProt O14757)
T2 sequence (O14757 1-476): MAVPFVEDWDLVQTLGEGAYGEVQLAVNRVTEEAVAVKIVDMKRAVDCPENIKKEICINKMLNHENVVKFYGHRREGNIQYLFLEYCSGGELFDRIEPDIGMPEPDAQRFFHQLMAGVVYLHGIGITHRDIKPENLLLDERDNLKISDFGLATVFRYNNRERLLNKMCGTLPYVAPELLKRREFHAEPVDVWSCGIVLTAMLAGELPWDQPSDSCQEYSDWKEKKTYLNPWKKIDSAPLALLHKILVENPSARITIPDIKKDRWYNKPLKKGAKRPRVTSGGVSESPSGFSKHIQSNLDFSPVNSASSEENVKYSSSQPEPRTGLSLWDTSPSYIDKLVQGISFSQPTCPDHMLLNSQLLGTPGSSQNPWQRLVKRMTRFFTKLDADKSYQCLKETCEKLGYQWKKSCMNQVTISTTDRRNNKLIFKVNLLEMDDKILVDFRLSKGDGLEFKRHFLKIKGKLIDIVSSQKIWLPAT
Procedure, shortened: as §1

Chain of 140 purified human kinases (Homo sapiens, UniProt Q14680) (Q14680 whole entry): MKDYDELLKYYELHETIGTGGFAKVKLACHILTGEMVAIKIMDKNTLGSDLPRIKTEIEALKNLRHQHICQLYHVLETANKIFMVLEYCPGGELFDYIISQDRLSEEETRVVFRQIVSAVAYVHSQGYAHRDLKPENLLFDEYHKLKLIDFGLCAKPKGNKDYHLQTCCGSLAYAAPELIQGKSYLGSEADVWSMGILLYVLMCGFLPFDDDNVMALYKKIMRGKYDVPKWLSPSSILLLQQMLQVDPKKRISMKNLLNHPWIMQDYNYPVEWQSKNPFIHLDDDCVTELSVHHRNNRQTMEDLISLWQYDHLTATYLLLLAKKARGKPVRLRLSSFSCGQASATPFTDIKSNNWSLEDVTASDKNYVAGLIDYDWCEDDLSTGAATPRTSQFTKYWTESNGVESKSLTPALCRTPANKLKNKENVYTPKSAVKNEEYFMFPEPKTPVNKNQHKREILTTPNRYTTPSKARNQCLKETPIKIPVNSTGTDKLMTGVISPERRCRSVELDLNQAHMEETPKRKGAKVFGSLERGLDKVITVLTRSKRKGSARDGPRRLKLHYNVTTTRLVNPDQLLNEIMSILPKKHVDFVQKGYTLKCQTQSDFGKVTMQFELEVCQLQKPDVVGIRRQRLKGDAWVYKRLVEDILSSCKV

[Cu+2].[Cu+2].[Cu+2].c1ccc(-c2csc(NCCN(CCNc3nc(-c4ccccn4)cs3)CCNc3nc(-c4ccccn4)cs3)n2)nc1.c1ccc(-c2csc(NCCN(CCNc3nc(-c4ccccn4)cs3)CCNc3nc(-c4ccccn4)cs3)n2)nc1 [[L2Cu3]6+]
% Inhibition Run 1 [1]: 38.7% | % Inhibition Run 2 [1]: 33.3% | % Inhibition, Mean [1]: 36% | mean % activity [1]: 64% | % activity ([1]; Run 1): 61.3% | % activity ([1]; Run 2): 66.7% | % Activation, Mean value [2]: 4.7% | % Inhibition Run 1 [2]: 10.8% | % Inhibition Run 2 [2]: -20.2% | % Inhibition, Mean [2]: -4.7% | mean % activity [2]: 105% | % activity ([2]; Run 1): 89.2% | % activity ([2]; Run 2): 120.2% | % Inhibition Run 1 ([3]; RSK1): 96.7% | % Inhibition Run 2 ([3]; RSK1): 97% | % Inhibition, Mean ([3]; RSK1): 97% | mean % activity ([3]; RSK1): 3% | % activity ([3]; RSK1, Run 1): 3.3% | % activity ([3]; RSK1, Run 2): 3% | % Activity inhibition Mean ([3]; RSK1, 10 µM): 96.9% | % Activity inhibition Run 1 ([3]; RSK1, 10 µM): 96.7% | % Activity inhibition Run 2 ([3]; RSK1, 10 µM): 97% | % Activity remaining Run 1 ([3]; RSK1, 10 µM): 3.30% | % Activity remaining Run 2 ([3]; RSK1, 10 µM): 3.00% | % Activation, Mean value ([4]; PLK1): 12% | % Inhibition Run 1 ([4]; PLK1): -4.1% | % Inhibition Run 2 ([4]; PLK1): -19.1% | % Inhibition, Mean ([4]; PLK1): -12% | mean % activity ([4]; PLK1): 112% | % activity ([4]; PLK1, Run 1): 104.1% | % activity ([4]; PLK1, Run 2): 119.1% | % Activity Run 1 ([4]; PLK1): 104.10% | % Activity Run 2 ([4]; PLK1): 119.10% | % Inhibition Run 1 ([5]; MKK1): 34% | % Inhibition Run 2 ([5]; MKK1): 8.9% | % Inhibition, Mean ([5]; MKK1): 21% | mean % activity ([5]; MKK1): 79% | % activity ([5]; MKK1, Run 1): 66% | % activity ([5]; MKK1, Run 2): 91.1% | % Inhibition Run 1 [6]: 69.9% | % Inhibition Run 2 [6]: 53.3% | % Inhibition, Mean [6]: 62% | mean % activity [6]: 38% | % activity ([6]; Run 1): 30.1% | % activity ([6]; Run 2): 46.7% | % Inhibition Run 1 [7]: 0% | % Inhibition Run 2 [7]: 16.4% | % Inhibition, Mean [7]: 8% | mean % activity [7]: 92% | % activity ([7]; Run 1): 100% | % activity ([7]; Run 2): 83.6% | % Inhibition Run 1 ([8]; CHK1): 45.6% | % Inhibition Run 2 ([8]; CHK1): 41.5% | % Inhibition, Mean ([8]; CHK1): 44% | mean % activity ([8]; CHK1): 56% | % activity ([8]; CHK1, Run 1): 54.4% | % activity ([8]; CHK1, Run 2): 58.5%

CC(=O)[O-].CC(=O)[O-].CC(=O)[O-].CC(=O)[O-].CC(=O)[O-].CC(=O)[O-].[Zn+2].[Zn+2].[Zn+2].c1ccc(-c2csc(NCCN(CCNc3nc(-c4ccccn4)cs3)CCNc3nc(-c4ccccn4)cs3)n2)nc1.c1ccc(-c2csc(NCCN(CCNc3nc(-c4ccccn4)cs3)CCNc3nc(-c4ccccn4)cs3)n2)nc1 [[L2Zn3]6+]
% Inhibition, Mean [1]: 27% | % Inhibition, Run 1 / Run 2 [1]: 35% and 19% | mean % activity [1]: 73% | % activity ([1]; duplicate runs): 65% and 81% | % Inhibition, Mean [2]: 24% | % Inhibition, Run 1 / Run 2 [2]: 27% and 22% | mean % activity [2]: 76% | % activity ([2]; duplicate runs): 74% and 78% | % Inhibition, Mean ([3]; RSK1): 73% | % Inhibition, Run 1 / Run 2 ([3]; RSK1): 76% and 70% | mean % activity ([3]; RSK1): 27% | % activity ([3]; RSK1, duplicate runs): 24% and 30% | % Activation, Mean value ([4]; PLK1): 17% | % Inhibition, Mean ([4]; PLK1): -17% | % Inhibition, Run 1 / Run 2 ([4]; PLK1): -15% and -19% | mean % activity ([4]; PLK1): 117% | % Activity Run 1 ([4]; PLK1): 115.0% | % Activity Run 2 ([4]; PLK1): 119.0% | % activity ([4]; PLK1, duplicate runs): 115% and 119% | % Activation, Mean value ([5]; MKK1): 3% | % Inhibition, Mean ([5]; MKK1): -3% | % Inhibition, Run 1 / Run 2 ([5]; MKK1): -3% | mean % activity ([5]; MKK1): 103% | % activity ([5]; MKK1, duplicate runs): 103% | % Inhibition, Mean [6]: 21% | mean % activity [6]: 79% | % activity ([6]; duplicate runs): 69% and 89% | % Inhibition, Mean [7]: 0.5% | mean % activity [7]: 100% | % activity ([7]; duplicate runs): 92% and 107% | % Inhibition, Mean ([8]; CHK1): 17% | % Inhibition, Run 1 / Run 2 ([8]; CHK1): 18% and 16% | mean % activity ([8]; CHK1): 83% | % activity ([8]; CHK1, duplicate runs): 82% and 84%

— paper PMC8222254, “Self-assembly of an anion receptor with metal-dependent kinase inhibition and potent in vitro anti-cancer properties” (Nature Communications, 2021)
